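Test compounds were applied to cells in 96-well plates for 48 hours at 5 doses. GI50 is the concentration that inhibits growth by half.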 Active and inactive are the calls of the source. Cut-off read from the data, not from the text of the source: active = GI50 up to about 1.1 µM and inactive = higher.
Tests used:
Assay in all cases: NCI anticancer screen, dose series, 48 h
COLO 205 = system: COLO 205
DLD-1 = system: DLD-1
EKVX = system: EKVX
HCC 2998 = system: HCC 2998
KM12 = system: KM12
M14 = system: M14
Malme-3M = system: Malme-3M
NCI-H226 = system: NCI-H226
NCI-H460 = system: NCI-H460
OVCAR-3 = system: OVCAR-3
OVCAR-4 = system: OVCAR-4
OVCAR-5 = system: OVCAR-5
SK-MEL-2 = system: SK-MEL-2
SK-MEL-5 = system: SK-MEL-5
SR = system: SR
SW-620 = system: SW-620
HL-60 = system: HL-60

Row | Compound | GI50 (COLO 205) | GI50 (DLD-1) | GI50 (EKVX) | GI50 (HCC 2998) | GI50 (KM12) | GI50 (M14) | GI50 (Malme-3M) | GI50 (NCI-H226) | GI50 (NCI-H460) | GI50 (OVCAR-3) | GI50 (OVCAR-4) | GI50 (OVCAR-5) | GI50 (SK-MEL-2) | GI50 (SK-MEL-5) | GI50 (SR) | GI50 (SW-620) | GI50 (HL-60)
1 | COc1ccc2[nH]c3c(c2c1)[C@H](c1ccccc1)C[C@@H]1C(=O)N(c2ccccc2)C(=O)[C@H]31 | > 100 µM (inactive) | 59.7 µM (inactive) | 89.1 µM (inactive) | 35.5 µM (inactive) | 17.5 µM (inactive) | 42.3 µM (inactive) | 45.5 µM (inactive) | 19.4 µM (inactive) | 22.4 µM (inactive) | 23.8 µM (inactive) | 16.7 µM (inactive) | > 100 µM (inactive) | 55.1 µM (inactive) | 72.9 µM (inactive) | 31.6 µM (inactive) | 20.7 µM (inactive) | 
2 | O=C(CO[N+](=O)[O-])OC/C=C/c1ccccc1 | > 100 µM (inactive) | > 100 µM (inactive) | > 100 µM (inactive) | > 100 µM (inactive) | > 100 µM (inactive) | > 100 µM (inactive) | > 100 µM (inactive) | > 100 µM (inactive) | > 100 µM (inactive) | > 100 µM (inactive) |  | > 100 µM (inactive) | > 100 µM (inactive) |  | > 100 µM (inactive) | > 100 µM (inactive) | 22.1 µM (inactive)
3 | Brc1ccc(N2C[N+](c3ccc(Br)cc3)=NC(c3ccccc3)=N2)cc1 | 19.1 µM (inactive) | 12.6 µM (inactive) | 16.7 µM (inactive) | 15.4 µM (inactive) | 14.9 µM (inactive) | 13.4 µM (inactive) | 16.7 µM (inactive) | 27.2 µM (inactive) | 13.6 µM (inactive) |  | 19.5 µM (inactive) | 16.4 µM (inactive) | 17 µM (inactive) | 16 µM (inactive) |  | 20.9 µM (inactive) | 17.1 µM (inactive)
4 | COc1ccc(C2c3cc(OC)c(OC)cc3C(Cc3ccc([N+](=O)[O-])cc3)C2c2ccc([N+](=O)[O-])cc2)cc1OC (centres undefined) | > 100 µM (inactive) | > 100 µM (inactive) | > 100 µM (inactive) | > 100 µM (inactive) | > 100 µM (inactive) | > 100 µM (inactive) | > 100 µM (inactive) | > 100 µM (inactive) | > 100 µM (inactive) | > 100 µM (inactive) | > 100 µM (inactive) | > 100 µM (inactive) | > 100 µM (inactive) | > 100 µM (inactive) |  | > 100 µM (inactive) | > 100 µM (inactive)
5 | N#CC(C#N)=c1[nH]c2cccc3c2-c2c(cccc2c3=C(C#N)C#N)[nH]1 | > 100 µM (inactive) | > 100 µM (inactive) | > 100 µM (inactive) | > 100 µM (inactive) | > 100 µM (inactive) | > 100 µM (inactive) | > 100 µM (inactive) | > 100 µM (inactive) | > 100 µM (inactive) | > 100 µM (inactive) | > 100 µM (inactive) | > 100 µM (inactive) |  | > 100 µM (inactive) | > 100 µM (inactive) | > 100 µM (inactive) | > 100 µM (inactive)
6 | NC(=S)N/N=C1\CCCC\C1=C/c1ccccc1 | 65.6 µM (inactive) | 33.2 µM (inactive) | 99.8 µM (inactive) | > 100 µM (inactive) | 45.1 µM (inactive) | 91 µM (inactive) | 60.8 µM (inactive) |  | > 100 µM (inactive) | 39.1 µM (inactive) | 27 µM (inactive) | 12.8 µM (inactive) | 73.3 µM (inactive) |  |  | 72.6 µM (inactive) | 1.88 µM (inactive)
7 | COc1ccc2[nH]c3c(C)cc([N+](=O)[O-])c(C)c3c2c1 | 26.3 µM (inactive) | 26.6 µM (inactive) | 31 µM (inactive) | 25.4 µM (inactive) | 19.7 µM (inactive) | 21.1 µM (inactive) | 28.6 µM (inactive) | 43.7 µM (inactive) | 15.5 µM (inactive) | 37.8 µM (inactive) | 33 µM (inactive) |  | 20.6 µM (inactive) | 25.6 µM (inactive) | 17.7 µM (inactive) | 21.7 µM (inactive) | 16.6 µM (inactive)
8 | CC(/C(=N\Nc1ccccc1)c1ccc(O)cc1)C1C(=O)Oc2ccccc21 (centres undefined) | > 100 µM (inactive) | > 100 µM (inactive) | > 100 µM (inactive) | > 100 µM (inactive) | > 100 µM (inactive) | > 100 µM (inactive) | > 100 µM (inactive) |  | > 100 µM (inactive) | > 100 µM (inactive) | > 100 µM (inactive) |  | > 100 µM (inactive) | > 100 µM (inactive) | > 100 µM (inactive) | > 100 µM (inactive) | > 100 µM (inactive)
9 | O=S(=O)(O)SC/C=C\CSS(=O)(=O)O | > 100 µM (inactive) | > 100 µM (inactive) | > 100 µM (inactive) | > 100 µM (inactive) | 21.4 µM (inactive) | > 100 µM (inactive) | > 100 µM (inactive) | 49.7 µM (inactive) | 42.9 µM (inactive) | > 100 µM (inactive) | > 100 µM (inactive) | > 100 µM (inactive) |  | > 100 µM (inactive) | > 100 µM (inactive) | > 100 µM (inactive) | > 100 µM (inactive)
10 | COC(=O)CC1C[C@H](C#N)N(C(=O)c2ccccc2)C[C@@H]1CC[N+](=O)[O-] (some centres undefined) | > 100 µM (inactive) | > 100 µM (inactive) | > 100 µM (inactive) | > 100 µM (inactive) | > 100 µM (inactive) | > 100 µM (inactive) | > 100 µM (inactive) |  | > 100 µM (inactive) | > 100 µM (inactive) | > 100 µM (inactive) | > 100 µM (inactive) | 0.0546 µM (active) | > 100 µM (inactive) | > 100 µM (inactive) | > 100 µM (inactive) | > 100 µM (inactive)
11 | CC1CC[C@@]23CCC4(C)[C@@](C=CC5[C@@]6(C)CCC(=O)C(C)(C)C6CC[C@]54C)(OC2=O)[C@@H]3[C@H]1C (some centres undefined) | 13.7 µM (inactive) | 19.3 µM (inactive) | 32.1 µM (inactive) |  | 12 µM (inactive) | 21.7 µM (inactive) | 20.9 µM (inactive) | 19.8 µM (inactive) | 13.2 µM (inactive) | 11.9 µM (inactive) | 29.4 µM (inactive) |  |  | 4.84 µM (inactive) | 6.08 µM (inactive) | 30.8 µM (inactive) | 1.6 µM (inactive)
12 | Cn1c(=O)nc2n(-c3cccc(F)c3)c3ccccc3nc-2c1=O | 6.11 µM (inactive) | 25.3 µM (inactive) | 13.8 µM (inactive) | 13.4 µM (inactive) | 23.1 µM (inactive) | 18.7 µM (inactive) | 14.4 µM (inactive) | 29.6 µM (inactive) | 11.6 µM (inactive) | 3.57 µM (inactive) | 14.7 µM (inactive) | 33.7 µM (inactive) | 20.3 µM (inactive) | 14.2 µM (inactive) |  | 11.1 µM (inactive) | 
13 | CCN(CC)C(=S)S [DITIOCARB SODIUM] | 0.0713 µM (active) | 88.5 µM (inactive) | > 100 µM (inactive) | 33.6 µM (inactive) | 0.646 µM (active) | 41.7 µM (inactive) | 19.1 µM (inactive) | > 100 µM (inactive) | 0.373 µM (active) |  |  | > 100 µM (inactive) | > 81.1 µM (inactive) | 1.63 µM (inactive) | 0.0354 µM (active) | 0.117 µM (active) | 0.294 µM (active)
